Assay results from PubChem BioAssay AID248 (DTP/NCI, 2004).
Values joined by “and” are separate entries in the source; they are usually repeats but may differ in a detail not shown here. Equal values may be shown once. Inconclusive results and toxic doses are left out. Cut-off read from the data, not from the text of the source: active = T/C of 150% or more; inactive = T/C below 125%.

Tested on: L1210 leukemia ip in BDF1 mice, survival T/C
Experiment: NCI In Vivo Anticancer Drug Screen. Data for tumor model L1210 Leukemia (intraperitoneal) in B6D2F1 (BDF1) mice
Settings: endpoint: mean survival time, higher = longer survival
Summary of the method: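 Tumor cells were implanted, animals were treated, and survival was followed. The result divides the treated measurement by the vehicle-control measurement.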

[1] = dose: 100.0 mg/kg/injection, schedule: Q01DX009 (ip), vehicle: Klucel (hydroxypropylcellulose) (HPC)
[2] = dose: 200.0 mg/kg/injection, schedule: Q01DX009 (ip), vehicle: Klucel (hydroxypropylcellulose) (HPC)
[3] = dose: 100.0 mg/kg/injection, schedule: Q04DX003 (ip), vehicle: Klucel (hydroxypropylcellulose) (HPC)
[4] = dose: 100.0 mg/kg/injection, schedule: Q04DX003 (ip), vehicle: saline with Tween-80
[5] = dose: 200.0 mg/kg/injection, schedule: Q04DX003 (ip), vehicle: saline with Tween-80
[6] = dose: 400.0 mg/kg/injection, schedule: Q04DX003 (ip), vehicle: saline with Tween-80
[7] = dose: 50.0 mg/kg/injection, schedule: Q01DX009 (ip), vehicle: saline with Tween-80
[8] = dose: 100.0 mg/kg/injection, schedule: Q01DX009 (ip), vehicle: saline with Tween-80

Measured: T/C

CC(C)OC(=S)SSC(=S)OC(C)C
inactive: dose: 50.0 mg/kg/injection, schedule: Q01DX009 (ip), vehicle: Klucel (hydroxypropylcellulose) (HPC) 105 % of control | dose: 100.0 mg/kg/injection, schedule: Q01DX001 (ip), vehicle: saline 96 % of control | [1] 92 % of control | dose: 100.0 mg/kg/injection, schedule: Q04DX003 (ip), vehicle: other 107 % of control | dose: 200.0 mg/kg/injection, schedule: Q01DX001 (ip), vehicle: saline 100 % of control | [2] 90 % of control | dose: 200.0 mg/kg/injection, schedule: Q04DX003 (ip), vehicle: other 98 % of control | dose: 400.0 mg/kg/injection, schedule: Q01DX001 (ip), vehicle: saline 102 % of control

CCCCCCCc1cc2ccccc2c2c(N)nc(N)nc12
inactive: dose: 12.0 mg/kg/injection, schedule: Q04DX003 (ip), vehicle: Klucel (hydroxypropylcellulose) (HPC) 105 % of control | dose: 25.0 mg/kg/injection, schedule: Q04DX003 (ip), vehicle: Klucel (hydroxypropylcellulose) (HPC) 93 % of control | dose: 50.0 mg/kg/injection, schedule: Q04DX003 (ip), vehicle: Klucel (hydroxypropylcellulose) (HPC) 98 % of control | dose: 100.0 mg/kg/injection, schedule: Q01DX001 (ip), vehicle: Klucel (hydroxypropylcellulose) (HPC) 90 % of control | [3] 107 % of control | dose: 200.0 mg/kg/injection, schedule: Q01DX001 (ip), vehicle: Klucel (hydroxypropylcellulose) (HPC) 96 % of control

COc1cc(N(CCCl)CCCl)c(OC)cc1C=Nc1ccccc1C(=O)O
inactive: dose: 2.6 mg/kg/injection, schedule: Q01DX009 (ip), vehicle: carboxymethylcellulose (CMC) 108 % of control | dose: 4.4 mg/kg/injection, schedule: Q01DX009 (ip), vehicle: carboxymethylcellulose (CMC) 116 % of control | dose: 5.5 mg/kg/injection, schedule: Q01DX001 (ip), vehicle: Klucel (hydroxypropylcellulose) (HPC) 109 % of control | dose: 6.6 mg/kg/injection, schedule: Q01DX009 (ip), vehicle: carboxymethylcellulose (CMC) 123 % of control | dose: 10.0 mg/kg/injection, schedule: Q01DX009 (ip), vehicle: carboxymethylcellulose (CMC) 123 % of control | dose: 11.0 mg/kg/injection, schedule: Q01DX001 (ip), vehicle: Klucel (hydroxypropylcellulose) (HPC) 111 % of control | dose: 19.0 mg/kg/injection, schedule: Q01DX001 (ip), vehicle: carboxymethylcellulose (CMC) 117 % of control | dose: 22.0 mg/kg/injection, schedule: Q01DX001 (ip), vehicle: Klucel (hydroxypropylcellulose) (HPC) 117 % of control | dose: 29.0 mg/kg/injection, schedule: Q01DX001 (ip), vehicle: carboxymethylcellulose (CMC) 118 % of control

CCOCCOCCOCCCNCC(=O)N1CCN(C(=O)CNCCCOCCOCCOCC)CC1
inactive: dose: 50.0 mg/kg/injection, schedule: Q01DX001 (ip), vehicle: carboxymethylcellulose (CMC) 92 % of control | dose: 100.0 mg/kg/injection, schedule: Q01DX001 (ip), vehicle: carboxymethylcellulose (CMC) 101 % of control | dose: 200.0 mg/kg/injection, schedule: Q01DX001 (ip), vehicle: carboxymethylcellulose (CMC) 103 % of control | dose: 400.0 mg/kg/injection, schedule: Q01DX001 (ip), vehicle: carboxymethylcellulose (CMC) 92 % of control

C=CCOC(=O)C1c2ccccc2Cc2ccccc21
inactive: [4] 97 % of control | [5] 97 % of control | [6] 95 % of control

CC1CCC(C(C)C)/C(=N/S)C1 (stereo not drawn)
inactive: dose: 75.0 mg/kg/injection, schedule: Q04DX003 (ip), vehicle: saline 93 % of control | dose: 150.0 mg/kg/injection, schedule: Q04DX003 (ip), vehicle: saline 96 % of control | dose: 300.0 mg/kg/injection, schedule: Q04DX003 (ip), vehicle: saline 104 % of control

CC(=N\NS(=O)(=O)c1ccc(C)cc1)/C(C)=N/NS(=O)(=O)c1ccc(C)cc1
inactive: dose: 75.0 mg/kg/injection, schedule: Q01DX001 (ip), vehicle: saline 87 % of control | dose: 150.0 mg/kg/injection, schedule: Q01DX001 (ip), vehicle: saline 89 % of control | dose: 300.0 mg/kg/injection, schedule: Q01DX001 (ip), vehicle: saline 90 % of control

c1cn2cncc2cn1
inactive: dose: 25.0 mg/kg/injection, schedule: Q01DX009 (ip), vehicle: saline 90 % of control | dose: 50.0 mg/kg/injection, schedule: Q01DX009 (ip), vehicle: saline 103 % of control | dose: 100.0 mg/kg/injection, schedule: Q01DX009 (ip), vehicle: saline 88 % of control | dose: 100.0 mg/kg/injection, schedule: Q04DX003 (ip), vehicle: saline 103 % of control | dose: 200.0 mg/kg/injection, schedule: Q04DX003 (ip), vehicle: saline 94 % of control

O=C1c2ccccc2C(=O)c2c1cccc2N1CCOCC1
inactive: dose: 200.0 mg/kg/injection, schedule: Q04DX002 (ip), vehicle: Klucel (hydroxypropylcellulose) (HPC) 98 % of control | dose: 400.0 mg/kg/injection, schedule: Q04DX002 (ip), vehicle: Klucel (hydroxypropylcellulose) (HPC) 112 % of control

CC(C)N(CCC(=O)CC12CC3CC(CC(C3)C1)C2)C(C)C
inactive: dose: 25.0 mg/kg/injection, schedule: Q04DX002 (ip), vehicle: saline 92 % of control | dose: 50.0 mg/kg/injection, schedule: Q04DX002 (ip), vehicle: saline 98 % of control | dose: 100.0 mg/kg/injection, schedule: Q04DX002 (ip), vehicle: saline 95 % of control and 97 % of control

O=C(NCCc1nc(-c2nc(C(=O)O)cs2)cs1)c1ccccc1
inactive: [4] 103 % of control | [5] 94 % of control | [6] 92 % of control

NC(=O)/C=C/C(N)=O
inactive: dose: 25.0 mg/kg/injection, schedule: Q01DX009 (ip), vehicle: saline with Tween-80 91 % of control | [7] 88 % of control | [8] 88 % of control | [4] 89 % of control | [5] 94 % of control | [6] 92 % of control

CC12CCCCC1=CC(=O)CCC2 (stereo not drawn)
inactive: [7] 98 % of control | [8] 98 % of control | dose: 200.0 mg/kg/injection, schedule: Q01DX009 (ip), vehicle: saline with Tween-80 98 % of control

COc1ccc(C(CCl)(CCl)c2ccc(OC)cc2)cc1
inactive: dose: 100.0 mg/kg/injection, schedule: Q01DX009 (ip), vehicle: gum acacia 110 % of control | dose: 100.0 mg/kg/injection, schedule: Q04DX003 (ip), vehicle: gum acacia 92 % of control | dose: 200.0 mg/kg/injection, schedule: Q01DX009 (ip), vehicle: gum acacia 98 % of control | dose: 200.0 mg/kg/injection, schedule: Q04DX003 (ip), vehicle: gum acacia 101 % of control | dose: 400.0 mg/kg/injection, schedule: Q01DX009 (ip), vehicle: gum acacia 93 % of control | dose: 400.0 mg/kg/injection, schedule: Q04DX003 (ip), vehicle: gum acacia 103 % of control

COC(=O)C1=C(O)C(=O)N(c2ccccc2)C1
inactive: dose: 100.0 mg/kg/injection, schedule: Q01DX001 (ip), vehicle: saline with Tween-80 88 % of control

COC(=O)c1cc(SC)nc(SC)n1
inactive: [3] 90 % of control | dose: 200.0 mg/kg/injection, schedule: Q04DX003 (ip), vehicle: Klucel (hydroxypropylcellulose) (HPC) 111 % of control | dose: 400.0 mg/kg/injection, schedule: Q04DX003 (ip), vehicle: Klucel (hydroxypropylcellulose) (HPC) 101 % of control

N#CC/C(C#N)=C/OC(=O)c1ccc(Cl)cc1
inactive: [1] 118 % of control | [2] 124 % of control | dose: 400.0 mg/kg/injection, schedule: Q01DX009 (ip), vehicle: Klucel (hydroxypropylcellulose) (HPC) 115 % of control

COc1ccc(CN2CCCN(Cc3ccc(OC)cc3)C2c2ccc(NC(C)=O)cc2)cc1
inactive: dose: 100.0 mg/kg/injection, schedule: Q01DX001 (ip), vehicle: acetone 100 % of control | dose: 200.0 mg/kg/injection, schedule: Q01DX001 (ip), vehicle: acetone 100 % of control
